Reference: article PMC8330742, “New benzothieno[2,3-c]pyridines as non-steroidal CYP17 inhibitors: design, synthesis, anticancer screening, apoptosis induction, and in silico ADME profile studies” (Journal of Enzyme Inhibition and Medicinal Chemistry, 2021)

How the values were obtained:
HCT-116 = assay: NCI-60 SRB screen; assay type: cell-based, human; conditions: HCT-116; single dose 10^−5 M
NCI-H226 = assay: NCI-60 SRB screen; assay type: cell-based, human; conditions: NCI-H226; single dose 10^−5 M
LOX IMVI = assay: NCI-60 SRB screen; assay type: cell-based, human; conditions: single dose 10^−5 M
A549/ATCC = assay: NCI-60 SRB screen; assay type: cell-based, human; conditions: single dose 10^−5 M
NCI-H522 = assay: NCI-60 SRB screen; assay type: cell-based, human; conditions: NCI-H522; single dose 10^−5 M
U251 = assay: NCI-60 SRB screen; assay type: cell-based, human; conditions: U251; single dose 10^−5 M
SR = assay: NCI-60 SRB screen; assay type: cell-based; conditions: single dose 10^−5 M
UACC-62 = assay: NCI-60 SRB screen; assay type: cell-based, human; conditions: UACC-62; single dose 10^−5 M
HCT-15 = assay: NCI-60 SRB screen; assay type: cell-based, human; conditions: HCT-15; single dose 10^−5 M
UO-31 = assay: NCI-60 SRB screen; assay type: cell-based, human; conditions: UO-31; single dose 10^−5 M
KM12 = assay: NCI-60 SRB screen; assay type: cell-based, human; conditions: KM12; single dose 10^−5 M
SK-MEL-28 = assay: NCI-60 SRB screen; assay type: cell-based; conditions: SK-MEL-28; single dose 10^−5 M
SN12C = assay: NCI-60 SRB screen; assay type: cell-based, human; conditions: SN 12 C; single dose 10^−5 M
SK-MEL-5 = assay: NCI-60 SRB screen; assay type: cell-based, human; conditions: SK-MEL-5; single dose 10^−5 M
CAKI-1 = assay: NCI-60 SRB screen; assay type: cell-based, human; conditions: CAKI-1; single dose 10^−5 M
OVCAR-4 = assay: NCI-60 SRB screen; assay type: cell-based, human; conditions: OVCAR-4; single dose 10^−5 M
HOP-92 = assay: NCI-60 SRB screen; assay type: cell-based, human; conditions: HOP-92; single dose 10^−5 M
SNB-19 = assay: NCI-60 SRB screen; assay type: cell-based; conditions: SNB-19; single dose 10^−5 M
786-0 = assay: NCI-60 SRB screen; assay type: cell-based; conditions: 786-0; single dose 10^−5 M
SF-268 = assay: NCI-60 SRB screen; assay type: cell-based, human; conditions: SF-268; single dose 10^−5 M
SNB-75 = assay: NCI-60 SRB screen; assay type: cell-based, human; conditions: SNB-75; single dose 10^−5 M
EKVX = assay: NCI-60 SRB screen; assay type: cell-based, human; conditions: single dose 10^−5 M
SF-295 = assay: NCI-60 SRB screen; assay type: cell-based, human; conditions: SF-295; single dose 10^−5 M
MALME-3M = assay: NCI-60 SRB screen; assay type: cell-based, human; conditions: single dose 10^−5 M
COLO 205 = assay: NCI-60 SRB screen; assay type: cell-based, human; conditions: COLO 205; single dose 10^−5 M
SF-539 = assay: NCI-60 SRB screen; assay type: cell-based, human; conditions: SF-539; single dose 10^−5 M
ACHN = assay: NCI-60 SRB screen; assay type: cell-based; conditions: single dose 10^−5 M
RXF 393 = assay: NCI-60 SRB screen; assay type: cell-based, human; conditions: RXF 393; single dose 10^−5 M
IGROV1 = assay: NCI-60 SRB screen; assay type: cell-based, human; conditions: IGROV1; single dose 10^−5 M
CCRF-CEM = assay: NCI-60 SRB screen; assay type: cell-based; conditions: single dose 10^−5 M
SW-620 = assay: NCI-60 SRB screen; assay type: cell-based; conditions: SW-620; single dose 10^−5 M
NCI-H460 = assay: NCI-60 SRB screen; assay type: cell-based, human; conditions: NCI-H460; single dose 10^−5 M
A498 = assay: NCI-60 SRB screen; assay type: cell-based, human; conditions: A498; single dose 10^−5 M
NCI/ADR-RES = assay: NCI-60 SRB screen; assay type: cell-based, human; conditions: single dose 10^−5 M
NCI-H322M = assay: NCI-60 SRB screen; assay type: cell-based, human; conditions: single dose 10^−5 M
SK-MEL-2 = assay: NCI-60 SRB screen; assay type: cell-based, human; conditions: SK-MEL-2; single dose 10^−5 M
HOP-62 = assay: NCI-60 SRB screen; assay type: cell-based, human; conditions: HOP-62; single dose 10^−5 M
HCC-2998 = assay: NCI-60 SRB screen; assay type: cell-based, human; conditions: HCC-2998; single dose 10^−5 M
OVCAR-5 = assay: NCI-60 SRB screen; assay type: cell-based, human; conditions: OVCAR-5; single dose 10^−5 M
TK-10 = assay: NCI-60 SRB screen; assay type: cell-based, human; conditions: TK-10; single dose 10^−5 M
HT-29 = assay: NCI-60 SRB screen; assay type: cell-based; conditions: HT-29; single dose 10^−5 M
NCI-H23 = assay: NCI-60 SRB screen; assay type: cell-based, human; conditions: NCI-H23; single dose 10^−5 M
OVCAR-3 = assay: NCI-60 SRB screen; assay type: cell-based, human; conditions: OVCAR-3; single dose 10^−5 M
K-562 = assay: NCI-60 SRB screen; assay type: cell-based, human; conditions: K-562; single dose 10^−5 M
RPMI-8226 = assay: NCI-60 SRB screen; assay type: cell-based; conditions: RPMI-8226; single dose 10^−5 M
OVCAR-8 = assay: NCI-60 SRB screen; assay type: cell-based, human; conditions: OVCAR-8; single dose 10^−5 M
HL-60(TB) = assay: NCI-60 SRB screen; assay type: cell-based, human; conditions: HL-60 (TB); single dose 10^−5 M
SK-OV-3 = assay: NCI-60 SRB screen; assay type: cell-based, human; conditions: SK-OV-3; single dose 10^−5 M
M14 = assay: NCI-60 SRB screen; assay type: cell-based, human; conditions: M14; single dose 10^−5 M
UACC-257 = assay: NCI-60 SRB screen; assay type: cell-based, human; conditions: UACC-275 (so in the source); single dose 10^−5 M
MOLT-4 = assay: NCI-60 SRB screen; assay type: cell-based; conditions: MOLT-4; single dose 10^−5 M
[1] = system: panel of 60 cancer cell lines; assay: NCI-60 SRB screen, mean or range over the panel; assay type: cell-based, human; conditions: mean over the cell lines; single dose 10^−5 M
MDA-MB-435 = assay: NCI-60 SRB screen; assay type: cell-based; conditions: MDA-MB435; single dose 10^−5 M

Q: Which “Growth inhibition (%)” value (HCT-116) does the source give for COc1ccc(C2NC(=O)Cc3c2sc2c(F)cccc32)c(OC)c1 (centres unmarked) [Compound 3a] here?
A: Its value is −0.50%.

Q: And the “Growth inhibition (%)” value (NCI-H226)?
A: The value was 13.11%.

Q: And the “Growth inhibition (%)” value (LOX IMVI)?
A: The value was 5.88%.

Q: And the “Growth inhibition (%)” value (A549/ATCC)?
A: The value was −10.00%.

Q: What about the “Growth inhibition (%)” value (NCI-H522) of the same molecule?
A: Its value is 4.48%.

Q: What about the “Growth inhibition (%)” value (U251) of the same molecule?
A: Its value is 2.07%.

Q: And the “Growth inhibition (%)” value (SR)?
A: Its value is 28.66%.

Q: What about the “Growth inhibition (%)” value (UACC-62) of the same molecule?
A: The value was 10.62%.

Q: And the “Growth inhibition (%)” value (HCT-15)?
A: Its value is −3.42%.

Q: What about the “Growth inhibition (%)” value (UO-31) of the same molecule?
A: The value was 32.68%.

Q: What about the “Growth inhibition (%)” value (KM12) of the same molecule?
A: The value was 7.40%.

Q: And the “Growth inhibition (%)” value (SK-MEL-28)?
A: The value was −11.36%.

Q: And the “Growth inhibition (%)” value (SN12C)?
A: Its value is −0.49%.

Q: What about the “Growth inhibition (%)” value (SK-MEL-5) of the same molecule?
A: Its value is 2.83%.

Q: And the “Growth inhibition (%)” value (CAKI-1)?
A: Its value is 23.33%.

Q: And the “Growth inhibition (%)” value (OVCAR-4)?
A: The value was 3.35%.

Q: And the “Growth inhibition (%)” value (HOP-92)?
A: The value was 2.88%.

Q: And the “Growth inhibition (%)” value (SNB-19)?
A: The value was 1.20%.

Q: What about the “Growth inhibition (%)” value (786-0) of the same molecule?
A: Its value is −7.41%.

Q: And the “Growth inhibition (%)” value (SF-268)?
A: The value was 8.45%.

Q: What about the “Growth inhibition (%)” value (SNB-75) of the same molecule?
A: Its value is 17.27%.

Q: What about the “Growth inhibition (%)” value (EKVX) of the same molecule?
A: Its value is 7.10%.

Q: And the “Growth inhibition (%)” value (SF-295)?
A: The value was −2.52%.

Q: What about the “Growth inhibition (%)” value (MALME-3M) of the same molecule?
A: The value was 15.80%.

Q: And the “Growth inhibition (%)” value (COLO 205)?
A: The value was −16.49%.

Q: And the “Growth inhibition (%)” value (SF-539)?
A: Its value is 11.49%.

Q: And the “Growth inhibition (%)” value (ACHN)?
A: Its value is 1.30%.

Q: And the “Growth inhibition (%)” value (RXF 393)?
A: Its value is −2.63%.

Q: What about the “Growth inhibition (%)” value (IGROV1) of the same molecule?
A: Its value is 8.40%.

Q: And the “Growth inhibition (%)” value (CCRF-CEM)?
A: Its value is −5.88%.

Q: And the “Growth inhibition (%)” value (SW-620)?
A: The value was 3.98%.

Q: What about the “Growth inhibition (%)” value (NCI-H460) of the same molecule?
A: The value was 2.47%.

Q: And the “Growth inhibition (%)” value (A498)?
A: Its value is 9.33%.

Q: What about the “Growth inhibition (%)” value (NCI/ADR-RES) of the same molecule?
A: The value was −2.37%.

Q: And the “Growth inhibition (%)” value (NCI-H322M)?
A: Its value is −3.18%.

Q: What about the “Growth inhibition (%)” value (SK-MEL-2) of the same molecule?
A: Its value is −25.13%.

Q: What about the “Growth inhibition (%)” value (HOP-62) of the same molecule?
A: Its value is 11.63%.

Q: And the “Growth inhibition (%)” value (HCC-2998)?
A: Its value is −15.27%.

Q: And the “Growth inhibition (%)” value (OVCAR-5)?
A: Its value is −3.20%.

Q: And the “Growth inhibition (%)” value (TK-10)?
A: The value was −29.42%.

Q: And the “Growth inhibition (%)” value (HT-29)?
A: The value was −7.86%.

Q: What about the “Growth inhibition (%)” value (NCI-H23) of the same molecule?
A: Its value is 0.15%.

Q: And the “Growth inhibition (%)” value (OVCAR-3)?
A: The value was −0.33%.

Q: What about the “Growth inhibition (%)” value (K-562) of the same molecule?
A: Its value is 12.84%.

Q: What about the “Growth inhibition (%)” value (RPMI-8226) of the same molecule?
A: Its value is −2.54%.

Q: And the “Growth inhibition (%)” value (OVCAR-8)?
A: Its value is −3.27%.

Q: And the “Growth inhibition (%)” value (HL-60(TB))?
A: The value was −7.79%.

Q: What about the “Growth inhibition (%)” value (SK-OV-3) of the same molecule?
A: The value was −0.85%.

Q: What about the “Growth inhibition (%)” value (M14) of the same molecule?
A: Its value is 4.96%.

Q: What about the “Growth inhibition (%)” value (UACC-257) of the same molecule?
A: The value was −6.31%.

Q: And the “Growth inhibition (%)” value (MOLT-4)?
A: The value was 2.64%.

Q: What about the “Mean growth inhibition (%)” value [1] of the same molecule?
A: Its value is 6.67%.

Q: And the “Growth inhibition (%)” value (MDA-MB-435)?
A: The value was 9.40%.
